Laboratory results published in US8269008B2, “Oxazolopyridine and isoxazolopyridine derivatives for use in the treatment of HIF-mediated conditions” (FibroGen, Inc., priority 2007, dated 2012).

These compounds were tested against T1, HIF-PH2 (EGLN1) (Homo sapiens, UniProt Q9GZT9) (assay: HIF-PH assay (14CO2 capture, peptide-dependent turnover)). Details: Concentration 22.22 μM.
T1 construct: made in house; host or cells: insect Hi5 cells
Format: biochemical
Description: Ketoglutaric acid α-[1-^14C]-sodium salt, alpha-ketoglutaric acid sodium salt, and HPLC purified peptide may be obtained from commercial sources, e.g., Perkin-Elmer (Wellesley Mass.), Sigma-Aldrich, and SynPep Corp. (Dublin Calif.), respectively. Peptides for use in the assay may be fragments of HIFα as described above or as disclosed in International Publication WO 2005/118836, incorporated by reference herein. For example, a HLF peptide for use in the HIF-PH assay is [methoxycoumarin]-DLDLEALAPYIPADDDFQL-amide. HIF-PH, e.g., HIF-PH2 (EGLN1), can be expressed in, e.g., insect Hi5 cells, and partially purified, e.g., through a SP ion exchange chromatography column. Enzyme activity is determined by capturing ^14CO2 using an assay described by Kivirikko and Myllyla (1982, Methods Enzymol. 82:245-304). Assay reactions contain 50 mM HEPES (pH 7.4), 100 μM α-ketoglutaric acid sodium salt, 0.30 μCi/mL ketoglutaric acid α-[1-^14C]-sodium salt, 40 μM FeSO4, 1 mM ascorbate, 1541.8 units/mL Catalase, with or without 50 μM peptide substrate and various concentrations of compound of the invention. Reactions are initiated by addition of HIF-PH enzyme.
The peptide-dependent percent turnover is calculated by subtracting percent turnover in the absence of peptide from percent turnover in the presence of substrate peptide. Percent inhibition and IC50 are calculated using peptide-dependent percent turnover at given inhibitor concentrations. Calculation of IC50 values for each inhibitor is conducted using GraFit software (Erithacus Software Ltd., Surrey UK). […]

T1 sequence (Q9GZT9 whole entry, species assumed): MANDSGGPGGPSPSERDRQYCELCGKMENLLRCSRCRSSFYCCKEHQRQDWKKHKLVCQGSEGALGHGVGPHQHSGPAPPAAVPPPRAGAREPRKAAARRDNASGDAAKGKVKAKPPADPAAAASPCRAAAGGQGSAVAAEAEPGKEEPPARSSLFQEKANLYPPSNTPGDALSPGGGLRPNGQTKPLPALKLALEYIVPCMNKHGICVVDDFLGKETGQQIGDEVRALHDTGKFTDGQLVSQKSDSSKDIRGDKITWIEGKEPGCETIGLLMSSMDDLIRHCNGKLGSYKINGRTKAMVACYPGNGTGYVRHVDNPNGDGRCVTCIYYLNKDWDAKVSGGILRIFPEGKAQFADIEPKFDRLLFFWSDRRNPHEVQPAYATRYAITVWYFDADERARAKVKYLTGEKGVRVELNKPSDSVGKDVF

First: COc1ccc(-c2noc3cnc(C(=O)NCC(=O)O)c(O)c23)cc1 [Example 16, {[4-Hydroxy-3-(4-methoxy-phenyl)-isoxazolo[5,4-c]pyridine-5-carbonyl]-amino}-acetic acid]
Second: O=C(O)CNC(=O)c1ncc2onc(-c3ccc(Cl)cc3)c2c1O [Example 14, {[3-(4-Chloro-phenyl)-4-hydroxy-isoxazolo[5,4-c]pyridine-5-carbonyl]-amino}-acetic acid]
The inhibition at 22.22 µM of the first is lower: 97.9% for the first, 98.8% for the second.

Compared with `O=C(O)CNC(=O)c1ncc2onc(-c3ccc(Cl)cc3Cl)c2c1O` [Example 75, {[3-(2,4-Dichloro-phenyl)-4-hydroxy-isoxazolo[5,4-c]pyridine-5-carbonyl]-amino}-acetic acid], `O=C(O)CNC(=O)c1ncc2onc(-c3ccccc3Cl)c2c1O` [Example 15, {[3-(2-Chloro-phenyl)-4-hydroxy-isoxazolo[5,4-c]pyridine-5-carbonyl]-amino}-acetic acid] is lower in inhibition at 22.22 µM: 98% for the first, 95.7% for the second.

Compared with `Cc1noc2cnc(C(=O)NCC(=O)O)c(O)c12` [Example 70, [(4-Hydroxy-3-methyl-isoxazolo[5,4-c]pyridine-5-carbonyl)-amino]-acetic acid], `O=C(O)CNC(=O)c1ncc2onc(-c3c(F)cccc3Cl)c2c1O` [Example 18, {[3-(2-Chloro-6-fluoro-phenyl)-4-hydroxy-isoxazolo[5,4-c]pyridine-5-carbonyl]-amino}-acetic acid] is lower in inhibition at 22.22 µM: 99.3% for the first, 88.2% for the second.

First: O=C(O)CNC(=O)c1nc(Br)c2onc(-c3ccccc3)c2c1O [Example 41, [(7-Bromo-4-hydroxy-3-phenyl-isoxazolo[5,4-c]pyridine-5-carbonyl)-amino]-acetic acid]
Second: N#Cc1nc(C(=O)NCC(=O)O)c(O)c2c(-c3ccccc3)noc12 [Example 20, [(7-Cyano-4-hydroxy-3-phenyl-isoxazolo[5,4-c]pyridine-5-carbonyl)-amino]-acetic acid]
The inhibition at 22.22 µM of the first is higher: 99.4% for the first, 98.5% for the second.

Compared with `COc1ccc(-c2noc3c(C)nc(C(=O)NCC(=O)O)c(O)c23)cc1` [Example 74, {[4-Hydroxy-3-(4-methoxy-phenyl)-7-methyl-isoxazolo[5,4-c]pyridine-5-carbonyl]-amino}-acetic acid], `N#Cc1nc(C(=O)NCC(=O)O)c(O)c2c(-c3ccc(F)cc3)noc12` [Example 23, {[7-Cyano-3-(4-fluoro-phenyl)-4-hydroxy-isoxazolo[5,4-c]pyridine-5-carbonyl]-amino}-acetic acid] is higher in inhibition at 22.22 µM: 94.4% for the first, 98.2% for the second.

Compared with `O=C(O)CNC(=O)c1ncc2onc(-c3ccccc3OC(F)(F)F)c2c1O` [Example 35, {[4-Hydroxy-3-(2-trifluoromethoxy-phenyl)-isoxazolo[5,4-c]pyridine-5-carbonyl]-amino}-acetic acid], `O=C(O)CNC(=O)c1ncc2onc(-c3cccc(OC(F)(F)F)c3)c2c1O` [Example 32, {[4-Hydroxy-3-(3-trifluoromethoxy-phenyl)-isoxazolo[5,4-c]pyridine-5-carbonyl]-amino}-acetic acid] is higher in inhibition at 22.22 µM: 86.3% for the first, 99.1% for the second.

Compared with `O=C(O)CNC(=O)c1ncc2onc(-c3ccc(-c4ccccc4)cc3)c2c1O` [Example 29, [(3-Biphenyl-4-yl-4-hydroxy-isoxazolo[5,4-c]pyridine-5-carbonyl)-amino]-acetic acid], `O=C(O)CNC(=O)c1nc(-c2ccccc2)c2onc(-c3ccccc3)c2c1O` [Example 13, [(4-Hydroxy-3,7-diphenyl-isoxazolo[5,4-c]pyridine-5-carbonyl)-amino]-acetic acid] is lower in inhibition at 22.22 µM: 99.4% for the first, 98.4% for the second.

First: CC(C)(C)c1ccc(-c2noc3cnc(C(=O)NCC(=O)O)c(O)c23)cc1 [Example 40, {[3-(4-tert-Butyl-phenyl)-4-hydroxy-isoxazolo[5,4-c]pyridine-5-carbonyl]-amino}-acetic acid]
Second: N#Cc1cccc(-c2noc3cnc(C(=O)NCC(=O)O)c(O)c23)c1 [Example 67, {[3-(3-Cyano-phenyl)-4-hydroxy-isoxazolo[5,4-c]pyridine-5-carbonyl]-amino}-acetic acid]
The inhibition at 22.22 µM of the first is higher: 98.8% for the first, 98.4% for the second.

`O=C(O)CNC(=O)c1nc(-c2cccnc2)c2onc(-c3ccccc3)c2c1O` [Example 33, [(4-Hydroxy-3-phenyl-7-pyridin-3-yl-isoxazolo[5,4-c]pyridine-5-carbonyl)-amino]-acetic acid] was tested, and the inhibition at 22.22 µM was 99.6%.

Same assay, conditions: Concentration 200.00 μM

Going from `O=C(O)CNC(=O)c1nc(-c2ccccc2)c2nc(-c3ccccc3)oc2c1O` [Example 5, [(7-Hydroxy-2,4-diphenyl-oxazolo[4,5-c]pyridine-6-carbonyl)-amino]-acetic acid] to `Cc1nc(C(=O)NCC(=O)O)c(O)c2oc(-c3ccccc3)nc12` [Example 3, [(7-Hydroxy-4-methyl-2-phenyl-oxazolo[4,5-c]pyridine-6-carbonyl)-amino]-acetic acid], the inhibition at 200 µM falls from 98.7% to 48.9%.

First: COc1ccc(-c2noc3c(O)c(C(=O)NCC(=O)O)nc(Cn4cccn4)c23)cc1 [Example 60, {[7-Hydroxy-3-(4-methoxy-phenyl)-4-pyrazol-1-ylmethyl-isoxazolo[4,5-c]pyridine-6-carbonyl]-amino}-acetic acid]
Second: COc1ccc(-c2noc3c(O)c(C(=O)NCC(=O)O)ncc23)cc1 [Example 46, {[7-Hydroxy-3-(4-methoxy-phenyl)-isoxazolo[4,5-c]pyridine-6-carbonyl]-amino}-acetic acid]
The inhibition at 200 µM of the first is higher: 100% for the first, 99.4% for the second.

Going from `C[C@@H](NC(=O)c1ncc2onc(-c3ccccc3)c2c1O)C(=O)O` [Example 31, 2-[(4-Hydroxy-3-phenyl-isoxazolo[5,4-c]pyridine-5-carbonyl)-amino]-(R)-propionic acid] to `O=C(O)CNC(=O)c1ncc2onc(-c3ccccc3)c2c1O` [Example 11, [(4-Hydroxy-3-phenyl-isoxazolo[5,4-c]pyridine-5-carbonyl)-amino]-acetic acid], the inhibition at 200 µM rises from 61% to 99.9%.

Compared with `O=C(O)CNC(=O)c1ncc2nc(-c3ccc(F)cc3)oc2c1O` [Example 2, {[2-(4-Fluoro-phenyl)-7-hydroxy-oxazolo[4,5-c]pyridine-6-carbonyl]-amino}-acetic acid], `O=C(O)CNC(=O)c1ncc2c(-c3ccc(F)cc3)noc2c1O` [Example 45, {[3-(4-Fluoro-phenyl)-7-hydroxy-isoxazolo[4,5-c]pyridine-6-carbonyl]-amino}-acetic acid] is lower in inhibition at 200 µM: 100% for the first, 98.6% for the second.

First: N#Cc1nc(C(=O)NCC(=O)O)c(O)c2onc(-c3ccc(F)cc3)c12 [Example 52, {[4-Cyano-3-(4-fluoro-phenyl)-7-hydroxy-isoxazolo[4,5-c]pyridine-6-carbonyl]-amino}-acetic acid]
Second: C#Cc1nc(C(=O)NCC(=O)O)c(O)c2onc(-c3ccccc3)c12 [Example 58, [(4-Ethynyl-7-hydroxy-3-phenyl-isoxazolo[4,5-c]pyridine-6-carbonyl)-amino]-acetic acid]
The inhibition at 200 µM of the first is lower: 98.6% for the first, 100% for the second.

Compared with `CCc1nc(C(=O)NCC(=O)O)c(O)c2oc(-c3ccccc3)nc12` [Example 4, [(4-Ethyl-7-hydroxy-2-phenyl-oxazolo[4,5-c]pyridine-6-carbonyl)-amino]-acetic acid], `Cc1nc(C(=O)NCC(=O)O)c(O)c2onc(-c3ccccc3)c12` [Example 50, [(7-Hydroxy-4-methyl-3-phenyl-isoxazolo[4,5-c]pyridine-6-carbonyl)-amino]-acetic acid] is higher in inhibition at 200 µM: 99.2% for the first, 99.5% for the second.

Going from `O=C(O)CNC(=O)c1ncc2c(-c3ccncc3)noc2c1O` [Example 48, [(7-Hydroxy-3-pyridin-4-yl-isoxazolo[4,5-c]pyridine-6-carbonyl)-amino]-acetic acid] to `Cc1nc(C(=O)NCC(=O)O)c(O)c2c(-c3ccccc3)noc12` [Example 12, [(4-Hydroxy-7-methyl-3-phenyl-isoxazolo[5,4-c]pyridine-5-carbonyl)-amino]-acetic acid], the inhibition at 200 µM falls from 100% to 98.6%.

Going from `O=C(O)CNC(=O)c1nc(Cc2ccccc2)c2c(-c3ccccc3)noc2c1O` [Example 62, [(4-Benzyl-7-hydroxy-3-phenyl-isoxazolo[4,5-c]pyridine-6-carbonyl)-amino]-acetic acid] to `O=C(O)CNC(=O)c1nc(C(F)(F)F)c2c(-c3ccccc3)noc2c1O` [Example 64, [(7-Hydroxy-3-phenyl-4-trifluoromethyl-isoxazolo[4,5-c]pyridine-6-carbonyl)-amino]-acetic acid], the inhibition at 200 µM falls from 100% to 94.2%.

Work on `CC(=O)c1nc(C(=O)NCC(=O)O)c(O)c2onc(-c3ccccc3)c12` [Example 61, [(4-Acetyl-7-hydroxy-3-phenyl-isoxazolo[4,5-c]pyridine-6-carbonyl)-amino]-acetic acid] yielded an inhibition at 200 µM of 100%.

In the case of `O=C(O)CNC(=O)c1nc(NCC(=O)O)c2onc(-c3cccc(Cl)c3)c2c1O` [Example 27, {[3-(3-Chloro-phenyl)-7-(ethanic acid-2-yl)amino-4-hydroxy-isoxazolo[5,4-c]pyridine-5-carbonyl]-amino}-acetic acid], the “% Inhibition (HIF-PH2)” value is reported as 96.45%.
